Measured values: PubChem BioAssay AID248 (DTP/NCI, 2004)
Toxic doses and inconclusive results are not listed. Cut-off read from the data, not from the text of the source: active = T/C of 150% or more; inactive = T/C below 125%.

Test system: L1210 leukemia ip in BDF1 mice, survival T/C
Assay: NCI In Vivo Anticancer Drug Screen. Data for tumor model L1210 Leukemia (intraperitoneal) in B6D2F1 (BDF1) mice
Settings: endpoint: mean survival time, higher = longer survival
In short: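 In this screen, tumor-bearing mice given compound are compared to those given vehicle, and their survival values are reported as a treated-to-control quotient.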

Measured: T/C

CCOC(=O)c1oc(C)nc1C
inactive: dose: 100.0 mg/kg/injection, schedule: Q01DX001 (ip), vehicle: Klucel (hydroxypropylcellulose) (HPC) 122 % of control | dose: 200.0 mg/kg/injection, schedule: Q01DX001 (ip), vehicle: Klucel (hydroxypropylcellulose) (HPC) 97 % of control | dose: 400.0 mg/kg/injection, schedule: Q01DX001 (ip), vehicle: Klucel (hydroxypropylcellulose) (HPC) 101 % of control

CC(S)CNCCSC(=O)c1ccccc1 (stereo unspecified)
inactive: dose: 100.0 mg/kg/injection, schedule: Q04DX003 (ip), vehicle: acetone 91 % of control | dose: 200.0 mg/kg/injection, schedule: Q04DX003 (ip), vehicle: acetone 102 % of control | dose: 400.0 mg/kg/injection, schedule: Q04DX003 (ip), vehicle: acetone 97 % of control

Cc1[nH]c(=S)oc1C
inactive: dose: 75.0 mg/kg/injection, schedule: Q01DX001 (ip), vehicle: other 105 % of control | dose: 150.0 mg/kg/injection, schedule: Q01DX001 (ip), vehicle: other 97 % of control | dose: 300.0 mg/kg/injection, schedule: Q01DX001 (ip), vehicle: other 103 % of control

O=C(Nc1cccc(Cl)c1)Nc1ccccc1Cl
inactive: dose: 100.0 mg/kg/injection, schedule: Q01DX009 (ip), vehicle: saline with Tween-80 100 % of control | dose: 200.0 mg/kg/injection, schedule: Q01DX009 (ip), vehicle: saline with Tween-80 97 % of control | dose: 400.0 mg/kg/injection, schedule: Q01DX009 (ip), vehicle: saline with Tween-80 96 % of control

COc1ccccc1OC(=O)Nc1ccc(S(=O)(=O)N(C)C)cc1
inactive: dose: 100.0 mg/kg/injection, schedule: Q01DX001 (ip), vehicle: saline 97 % of control | dose: 100.0 mg/kg/injection, schedule: Q04DX003 (ip), vehicle: saline 97 % of control | dose: 200.0 mg/kg/injection, schedule: Q01DX001 (ip), vehicle: saline 100 % of control | dose: 200.0 mg/kg/injection, schedule: Q04DX003 (ip), vehicle: saline 95 % of control | dose: 400.0 mg/kg/injection, schedule: Q01DX001 (ip), vehicle: saline 91 % of control | dose: 400.0 mg/kg/injection, schedule: Q04DX003 (ip), vehicle: saline 97 % of control

N=C(N)N(CC(=O)O)Cc1ccccc1
inactive: dose: 100.0 mg/kg/injection, schedule: Q04DX002 (ip), vehicle: saline with Tween-80 101 % of control | dose: 200.0 mg/kg/injection, schedule: Q04DX002 (ip), vehicle: saline with Tween-80 114 % of control | dose: 400.0 mg/kg/injection, schedule: Q04DX002 (ip), vehicle: saline with Tween-80 104 % of control
